The text below walks through data of paper PMC8566451, “Lead optimization of novel quinolone chalcone compounds by a structure–activity relationship (SAR) study to increase efficacy and metabolic stability” (Scientific Reports, 2021).

Data set [1] deals with NCI-60 panel of cancer cell lines. Description: NCI-60 panel, SRB colorimetric assay. In kind it is cell-based. As to conditions: 10 μM single dose and five dose data (Supplemental Figs. S1–S8). On the procedure:
Supplementa ry Figure l egend
Supplementary Figures S 1- S4.CTR -21 effectivel y prev ent proliferation o f a rep resent ative set […]
of cancer cell lines (NC I-60 panel). Fi gu re S 1: 10 μM of CTR -21 was used against the panel of […]
NC I-60 cancer cell lines including: six leukemia cell lines, nine non-small cell lung cancer cell […]
lines, seven colorectal cancer cell lines, six CNS cancer cell lines, nine mel anoma cell lines, seven ovari an can cer cell lines, seven ren al can cer cell lines, two prostate cancer cell lines and six breast cancer cell lines, utilizing the sulforhodamine B (SRB) colorimetric assa y. Fi gu re S 2- […]
S4: Five dose data for CTR-21.
Supplementary Figures S 5- S8.CTR -32effectivel y prev ent s prolifer ation of a rep resent ative set […]
of cancer cell lines (NC I-60 panel). Fi gu re S 5: 10 μM of CTR -32 was used against the panel of […]
six breast cancer cell lines, utilizing the sulforhodamine B (SRB) colorimetric assa y. Fi gu re S 6- […]
S8: Five dose data for CTR-32.
Supplementa ry Figure S9.CTR -21 and CTR-32 inhibit microtubule pol ymerization in vitro .
Spontaneous pol ymerizat ion of 20µM porcine tubulin was initiated with the addition of 1 […]
mmol/L GTP at 37°C and monitored ever y minut e for 60 minutes in the presence of the […]
indicated concentration of CTR-21, CTR-32, nocodazole, paclitaxel, or a DMSO vehicle […]

Data set [2] deals with primary human epidermal melanocytes. Description: GI50 on primary skin cells. The format is cell-based. The conditions noted are these: for GI50: Homo sapiens, Melanocyte, primary skin cells; for Selectivity Index (primary skin cells): primary melanocytes versus average GI50 of cancer cells. Here is the method:
The human MDA-MB-231, MCF7, MDA-MB-468, RPMI-8226 and HeLa cell lines were purchased from ATCC and maintained in Dulbecco's Modified Eagle Medium (DMEM)—high glucose supplemented with 10% fetal bovine serum (FBS) and antibiotics/antimycotics. Cell line authentication was carried out by Genetica DNA Laboratories (Burlington, NC) using a short tandem repeat (STR) profiling method (March 2015; July 2015; September 2016). Melanoma cells E-055 (MZ-Mel-3), E-097 (Mel-SOE), E-112 (UKRV-Mel-38), E-157 (UKRV-Mel-17) were obtained from the European Searchable Tumour Line Database (ESTDAB) cell bank (a kind gift of Dr. Graham Pawelec, Tubingen University, Germany). MDA-MB-435 was purchased from the Division of Cancer Treatment and Diagnosis Tumor Repository. All melanoma cells were cultured in Roswell Park Memorial Institute (RPMI) medium supplemented with 10% FBS and P/S/antimycotics. Primary human epidermal melanocytes from normal adult abdominal skin were purchased from ATCC (cat # PCS-200–013) and Cell Applications (cat#104-05a). The melanocytes were cultured in the media supplied by the companies.
The SRB assay was used to assess drug-induced cytotoxicity and cell proliferation as previously described[2],[33],[34] with a few modifications. Briefly, cells were plated 10,000 to 25,000 cells/cm^2 in 96-well plates (100 µl medium) and allowed to adhere overnight. The cell counts were different for each cell line to ensure optimal cell growth for the duration of the assay. Eight different concentrations of compound solutions using 2–4 times serial dilutions (100 µl). Cells were then incubated for an additional 48 h and then fixed with 100 µl ice-cold 10% (w/v) trichloroacetic acid (TCA) (without removing the cell medium, final concentration, 3.3% of TCA) and stained with 0.4% SRB (w/v) in 1% acetic acid (v/v). The relative growth rate (%) was calculated for each of the compound concentrations according to the following formula: 100 * (T − T0)/(C − T0), in which T is the optical density (OD) after exposure to a certain concentration of the compound after 48 h, T0 is the OD at the start of drug exposure (time zero) and C is the control growth. The GI50 for each compound was obtained from a non-linear sigmoidal dose–response (variable slope) curve fitted by GraphPad Prism v.4.03 software.

The test system of data set [3] is UKRV-Mel-38. As to the kind of experiment: Sulforhodamine B (SRB) assay. The format is cell-based. The conditions noted are these: UKRV-Mel-38 melanoma cells, 48 h. Summed up:
(§1)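 Melanoma lines, cultured in RPMI plus 10% FBS, and DMEM-grown MDA-MB-231 received eight serially diluted compound doses for 48 h. SRB optical density, corrected against time-zero and vehicle growth, yielded GI50 by curve fitting.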

In data set [4] the test system is HeLa. Description: Sulforhodamine B (SRB) assay. The format is cell-based. As to conditions: Homo sapiens; for IC50: HeLa, Supplementary Table S1, SRB; for GI50: HeLa cervical cancer cells, 48 h, SRB. Summed up:
(§2)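 Overnight-adhered cells, 10,000–25,000/cm^2; 8-point dilution series (2–4×); 48 h exposure; TCA fix, 0.4% SRB stain, OD read; GI50 by non-linear fit.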
(The SRB assay estimates cell density from bound dye.)

Data set [5] concerns Mel-SOE. As to the kind of experiment: Sulforhodamine B (SRB) assay. In kind it is cell-based. As to conditions: Mel-SOE melanoma cells, 48 h. The method, boiled down:
as §1

Data set [6] concerns UKRV-Mel-17. As to the kind of experiment: Sulforhodamine B (SRB) assay. The format is cell-based. As to conditions: UKRV-Mel-17 melanoma cells, 48 h. Summed up: as §1
Data set [7] relates to MDA-MB231. As to the kind of experiment: Sulforhodamine B (SRB) assay. The format is cell-based. The conditions noted are these: Homo sapiens, MDA-MB-231; for GI50: MDA-MB231 breast cancer cells, 48 h, SRB; for IC50: Supplementary Table S1, SRB. Summed up: as §1
Data set [8] deals with MZ-Mel-3. As to the kind of experiment: Sulforhodamine B (SRB) assay. The format is cell-based. As to conditions: MZ-Mel-3 melanoma cells, 48 h. The method, boiled down:
as §1

For data set [9], the system named is RPMI-8226. Description: Sulforhodamine B (SRB) assay. In kind it is cell-based. As to conditions: Homo sapiens, Supplementary Table S1, SRB. The method, boiled down:
as §2

A short description of data set [10]: Microsome metabolism assay. The format is in vitro ADME, human. The conditions noted are these: for half-life at 5 µM: human microsomes (20 mg/ml protein), NADPH, 120 min. On the procedure: (a) CTR-21 is much more metabolically stable than CTR-32. 5 µM of CTR-21 or CTR-32 were incubated with human microsomes (20 mg/ml protein) in the presence of NADPH over the course of 120 min. The lysates were analyzed and % remaining CTR compounds were identified and estimated using HPLC–MS. (b) Summary of structure–activity relationship (SAR) based on activity and metabolic stability.
Microsome metabolism assay was carried out as per manufacturer protocol (ThermoFisher), with 5 µM of starting compound. Analytes were measured on a Waters Xevo G2-XS Quadrupole Time-of-Flight mass spectrometer. Half-life was calculated using exponential one phase decay (GraphPad Prism 5). Hydroxychloroquine was used as an internal standard (500 pg/µL).

Setting [11] is: Melanocytes #1, read-out: GI50 Melanocytes #1.
Where [12] appears, read: Melanocytes #2, read-out: GI50 Melanocytes #2.

Structures are written as SMILES. Like-named read-outs stand apart in the source and are kept apart here.

A word on the GI50: it is the concentration at which growth is held to half of that of the control. Usually IC50 stands for the midpoint of a concentration-inhibition curve. A low value points to inhibition by little substance. The half-life is the time in which the quantity being followed falls by half. Take `COc1ccccc1C(=O)/C=C/c1cc2cccc(OC)c2[nH]c1=O` [CTR-21, (E)-8-methoxy-3-(3-(2-methoxyphenyl)-3-oxoprop-1-enyl) quinolin-2(1H)-one]: in data set [1], the “activity against NCI-60 panel” value was “highly effective”. In addition, the GI50 was found to be 2090 ± 804 nM in data set [2] (setting [11]); 3050 ± 960 nM in data set [2] (setting [12]); 13 ± 3 nM in data set [3]; 8 ± 3 nM in data set [4]; 27 ± 5 nM in [5]; 9 ± 2 nM in data set [6]. In addition, the 50% growth inhibitory concentration (GI50) in data set [7] was 17 ± 3 nM; in [8], 6 ± 1 nM. Further, in [2], the “Selectivity Index (primary skin cells)” value was 157. Further, the IC50 in [4] is 11.9 ± 1.4 nM; in [7], 56.9 ± 10.5 nM; in data set [9] it was 5.34 ± 0.89 nM. The half-life at 5 µM in [10] is 65.2 min. The “half-life relative to CTR-32” value in data set [10] (human microsomes) is listed as “almost five times greater”.
For `CCOc1ccccc1C(=O)/C=C/c1cc2ccccc2[nH]c1=O` [CTR-32, (E)-3-(3-(2-ethoxyphenyl)-3-oxoprop-1-enyl)quinolin-2(1H)-one], in [1], the “activity against NCI-60 panel” value was “highly effective”. The GI50 was 2630 ± 782 nM in data set [2] (setting [11]); 3630 ± 1080 nM in data set [2] (setting [12]); 22 ± 3 nM in [3]; 11 ± 2 nM in [4]; 33 ± 9 nM in data set [5]; 18 ± 3 nM in data set [6]. Also, the GI50 in data set [7] was determined as 20 ± 2 nM; in [8], 6 ± 2 nM. For the same compound, the “Selectivity Index (primary skin cells)” value in [2] amounted to 158. Besides, the IC50 in data set [4] amounted to 12.9 ± 0.35 nM; in [7], 44.2 ± 4.21 nM; in [9], 6.29 ± 1.43 nM. For the same compound, the half-life at 5 µM in data set [10] amounted to 13.7 min.
